Experiment in all cases: Kinase panel (mobility shift)
Common to all, as to type: biochemical

In one experiment the target is SRC (Homo sapiens, UniProt P12931). A digest of the protocol: (§1)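 Each kinase was incubated with a fluorescently labeled substrate and compound in a standard reaction mix. After the reaction was stopped, product and substrate were separated on microfluidic chips by electrophoretic mobility shift. Activity came from comparing product and substrate peak fluorescence, graded A (95% or greater), B (90%-94%) or C (80%-89%) at 5 um.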

For another experiment, the target named is T1, EPH-A8 (Homo sapiens, UniProt P29322).
T1 sequence (P29322 28-1005): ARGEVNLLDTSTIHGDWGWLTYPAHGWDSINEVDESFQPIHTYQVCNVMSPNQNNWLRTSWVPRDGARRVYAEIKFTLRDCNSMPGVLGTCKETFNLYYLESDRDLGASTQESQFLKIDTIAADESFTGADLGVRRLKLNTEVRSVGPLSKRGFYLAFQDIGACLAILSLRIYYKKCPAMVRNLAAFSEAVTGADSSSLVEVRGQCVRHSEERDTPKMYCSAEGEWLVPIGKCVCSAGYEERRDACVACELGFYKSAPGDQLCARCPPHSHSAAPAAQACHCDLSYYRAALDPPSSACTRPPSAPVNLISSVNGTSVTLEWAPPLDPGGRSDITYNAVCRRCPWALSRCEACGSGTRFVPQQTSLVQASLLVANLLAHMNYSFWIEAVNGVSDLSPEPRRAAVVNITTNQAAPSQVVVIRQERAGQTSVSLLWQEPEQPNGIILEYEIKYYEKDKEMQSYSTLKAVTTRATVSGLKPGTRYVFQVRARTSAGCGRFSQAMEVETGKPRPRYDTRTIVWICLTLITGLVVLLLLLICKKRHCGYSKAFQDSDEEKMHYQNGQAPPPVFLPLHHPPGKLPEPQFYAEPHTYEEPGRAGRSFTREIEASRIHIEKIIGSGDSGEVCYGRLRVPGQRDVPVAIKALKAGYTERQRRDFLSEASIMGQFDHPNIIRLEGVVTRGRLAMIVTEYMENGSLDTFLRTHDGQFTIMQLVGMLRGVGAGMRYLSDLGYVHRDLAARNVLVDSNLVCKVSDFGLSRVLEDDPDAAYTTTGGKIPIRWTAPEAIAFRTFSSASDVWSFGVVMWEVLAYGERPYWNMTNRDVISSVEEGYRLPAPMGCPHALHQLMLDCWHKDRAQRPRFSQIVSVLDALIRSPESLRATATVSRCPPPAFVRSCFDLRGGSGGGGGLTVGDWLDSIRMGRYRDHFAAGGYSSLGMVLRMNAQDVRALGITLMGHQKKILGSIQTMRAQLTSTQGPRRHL
A digest of the protocol: as §1

The next experiment deals with T2, EPH-B4 (Homo sapiens, UniProt P54760).
T2 sequence (P54760 16-987): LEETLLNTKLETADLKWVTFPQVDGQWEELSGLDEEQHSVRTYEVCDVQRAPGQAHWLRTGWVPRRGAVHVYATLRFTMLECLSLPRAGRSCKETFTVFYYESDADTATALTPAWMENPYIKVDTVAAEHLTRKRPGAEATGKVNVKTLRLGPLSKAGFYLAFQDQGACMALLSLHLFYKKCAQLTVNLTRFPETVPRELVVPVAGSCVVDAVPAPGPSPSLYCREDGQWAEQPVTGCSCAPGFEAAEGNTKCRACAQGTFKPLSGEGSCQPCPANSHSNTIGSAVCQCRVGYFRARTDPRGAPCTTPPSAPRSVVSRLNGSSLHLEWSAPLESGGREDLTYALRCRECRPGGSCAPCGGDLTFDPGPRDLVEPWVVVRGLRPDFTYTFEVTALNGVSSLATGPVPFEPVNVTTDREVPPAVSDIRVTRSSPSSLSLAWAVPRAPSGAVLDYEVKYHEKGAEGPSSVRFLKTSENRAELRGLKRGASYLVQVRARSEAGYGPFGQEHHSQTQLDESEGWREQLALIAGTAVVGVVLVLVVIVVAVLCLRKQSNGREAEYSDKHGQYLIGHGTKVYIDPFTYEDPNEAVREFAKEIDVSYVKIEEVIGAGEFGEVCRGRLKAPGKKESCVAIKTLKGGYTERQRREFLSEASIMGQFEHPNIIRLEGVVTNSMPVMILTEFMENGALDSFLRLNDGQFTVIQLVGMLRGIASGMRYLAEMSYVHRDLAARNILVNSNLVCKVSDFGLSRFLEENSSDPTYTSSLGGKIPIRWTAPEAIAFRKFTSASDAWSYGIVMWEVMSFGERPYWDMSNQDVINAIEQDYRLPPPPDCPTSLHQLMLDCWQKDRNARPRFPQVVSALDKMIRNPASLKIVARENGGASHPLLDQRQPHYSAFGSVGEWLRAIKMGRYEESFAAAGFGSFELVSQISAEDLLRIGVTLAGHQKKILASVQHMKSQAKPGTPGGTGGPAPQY
A digest of the protocol:
as §1

Structures are written as SMILES. A value given as a limit tells only on which side of the number the result lay.

The term inhibition denotes the percentage by which the read-out fell short of the control.

Sequence of SRC (P12931 whole entry, species assumed): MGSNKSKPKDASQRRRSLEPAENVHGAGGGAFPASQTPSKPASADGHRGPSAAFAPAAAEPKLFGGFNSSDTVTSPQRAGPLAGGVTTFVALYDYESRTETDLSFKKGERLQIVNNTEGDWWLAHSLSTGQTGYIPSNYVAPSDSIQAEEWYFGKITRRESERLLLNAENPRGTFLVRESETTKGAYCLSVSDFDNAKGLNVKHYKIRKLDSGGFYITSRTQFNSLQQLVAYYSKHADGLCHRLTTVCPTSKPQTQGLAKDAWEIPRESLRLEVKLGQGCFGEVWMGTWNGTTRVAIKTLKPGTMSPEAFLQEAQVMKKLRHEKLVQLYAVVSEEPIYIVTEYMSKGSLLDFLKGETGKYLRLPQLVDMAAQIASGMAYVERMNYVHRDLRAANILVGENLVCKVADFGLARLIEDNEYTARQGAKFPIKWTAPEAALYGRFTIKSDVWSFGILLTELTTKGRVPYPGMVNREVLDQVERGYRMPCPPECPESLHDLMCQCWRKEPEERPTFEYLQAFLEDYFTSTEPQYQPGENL

As to `CSc1nc(C(=O)Nc2ccc(Oc3ccnc(C(=O)NC4CNC4)c3)c(F)c2)c(-c2ccc(F)s2)o1` [Compound 27], the inhibition at 5 µM at SRC, at EPH-A8 and at EPH-B4 was below 50% throughout.

Take `CSc1nc(C(=O)Nc2ccc(Oc3ccnc(C(=O)NC4COC4)c3)c(F)c2)c(-c2ccc(F)s2)o1` [Compound 28]: the inhibition at 5 µM at SRC, at EPH-A8 and at EPH-B4 was below 50% each time.

For the compound `CNC(=O)c1cc(Oc2ccc(NC(=O)c3nc(SC(C)C)oc3-c3ccc(F)cc3)cc2F)ccn1` [Compound 34], the inhibition at 5 µM at SRC, at EPH-A8 and on EPH-B4 was 80 to 89% throughout.

For the compound `[2H]C([2H])([2H])NC(=O)c1cc(Oc2ccc(NC(=O)c3nc(SC)oc3-c3ccc(F)c(F)c3)cc2F)ccn1` [Compound 33], the inhibition at 5 µM on SRC, at EPH-A8 and on EPH-B4 was below 50% in each case.

As to `CNC(=O)c1cc(Oc2ccc(NC(=O)c3nc(OC)oc3-c3ccc(F)cc3)cc2F)ccn1` [Compound 15], the inhibition at 5 µM on SRC is below 50%; on EPH-A8, 80 to 89%; at EPH-B4 it was 50 to 79%.

As to `CNC(=O)c1cc(Oc2ccc(NC(=O)c3nc(NC)sc3-c3ccc(F)cc3C)cc2F)ccn1` [Compound 23], the inhibition at 5 µM was below 50% at SRC, 50 to 79% on EPH-A8 and 50 to 79% on EPH-B4.

Consider `CNC(=O)c1cc(Oc2ccc(NC(=O)c3nc(SC)oc3-c3ccc(F)cc3Cl)cc2)ccn1` [Compound 3], for which the inhibition at 5 µM is 80 to 89% on SRC, 50 to 79% at EPH-A8 and below 50% on EPH-B4.

Turning to `CSc1nc(C(=O)Nc2ccc(Oc3ccnc(C(=O)NC4COC4)c3)c(F)c2)c(-c2ccc(F)c(F)c2)o1` [Compound 37], the inhibition at 5 µM on SRC, on EPH-A8 and on EPH-B4 was below 50% throughout.

With `CSc1nc(C(=O)Nc2ccc(Oc3ccnc(C(=O)NC4CNC4)c3)c(F)c2)c(-c2ccc(F)cc2)o1` [Compound 29], the inhibition at 5 µM is below 50% on SRC, 50 to 79% at EPH-A8 and below 50% on EPH-B4.

On to `CSc1nc(C(=O)Nc2ccc(Oc3ccnc(-c4cnn(C)c4)c3)c(F)c2)c(-c2ccc(F)cc2)o1` [Compound 11], for which the inhibition at 5 µM on SRC fell in the range of 50 to 79%; on EPH-A8 it was 80 to 89%; on EPH-B4 it was 80 to 89%.

Regarding `CNC(=O)c1cc(Oc2ccc(NC(=O)c3nc(OC)oc3-c3ccc(F)s3)cc2F)ccn1` [Compound 25], the inhibition at 5 µM at SRC, on EPH-A8 and at EPH-B4 was below 50% throughout.

For `CNC(=O)c1cc(Oc2ccc(NC(=O)c3nc(NC)oc3-c3ccc(F)s3)cc2F)ccn1` [Compound 17], the inhibition at 5 µM on SRC, at EPH-A8 and at EPH-B4 was below 50% throughout.

Take `CNC(=O)c1cc(Oc2ccc(NC(=O)c3nc(SC)oc3-c3ccc(F)cc3F)cc2F)ccn1` [Compound 12]: the inhibition at 5 µM at SRC, at EPH-A8 and at EPH-B4 was 50 to 79% throughout.

On to `CSc1nc(C(=O)Nc2ccc(Oc3ccnc(C(=O)NCCN(C)C)c3)c(F)c2)c(-c2ccc(F)cc2)o1` [Compound 41], for which the values for the inhibition at 5 µM on SRC, on EPH-A8 and at EPH-B4 were below 50%, 50 to 79% and below 50%, respectively.

As to `CNC(=O)c1cc(Oc2ccc(NC(=O)c3nc(C4CC4)oc3-c3ccc(F)cc3)cc2F)ccn1` [Compound 26], the inhibition at 5 µM at SRC lay in the range of 50 to 79%; at EPH-A8 it was 80 to 89%; at EPH-B4, 80 to 89%.

In the case of `CNC(=O)c1cc(Oc2ccc(NC(=O)c3nc(S(C)(=O)=O)sc3-c3ccc(F)cc3)cc2F)ccn1` [Compound 13], the figures for the inhibition at 5 µM on SRC, on EPH-A8 and on EPH-B4 were below 50%, 80 to 89% and 50 to 79%, respectively.

On to `CNC(=O)c1cc(Oc2ccc(NC(=O)c3nc(COC)oc3-c3ccc(F)cc3)cc2F)ccn1` [Compound 30], for which the inhibition at 5 µM was in the range of 50 to 79% on SRC, 90 to 94% on EPH-A8 and 80 to 89% at EPH-B4.

Consider `CNC(=O)c1cc(Oc2ccc(NC(=O)c3nc(SC)oc3-c3ccc(F)c(F)c3)cc2)ccn1` [Compound 4], for which the figures for the inhibition at 5 µM at SRC, at EPH-A8 and on EPH-B4 were below 50%, 50 to 79% and below 50%, respectively.

As to `CSc1nc(C(=O)Nc2ccc(Oc3ccnc(N)c3Cl)c(F)c2)c(-c2ccc(F)cc2)o1` [Compound 1], the inhibition at 5 µM at SRC, on EPH-A8 and at EPH-B4 was below 50% each time.

Turning to `CNC(=O)c1cc(Oc2c(F)cc(NC(=O)c3nc(NC)sc3-c3ccc(F)cc3)cc2F)ccn1` [Compound 19], the inhibition at 5 µM at SRC was below 50%; at EPH-A8 it was 50 to 79%; at EPH-B4, 50 to 79%.

For the compound `CSc1nc(C(=O)Nc2ccc(Oc3ccnc(C(=O)NC4COC4)c3)c(F)c2)c(-c2ccc(F)cc2)o1` [Compound 31], the inhibition at 5 µM on SRC, at EPH-A8 and at EPH-B4 was below 50% in each case.

On to `CNC(=O)c1cc(Oc2ccc(NC(=O)c3nc(SC)oc3-c3ccc(OC)cc3)cc2)ccn1` [Compound 7], for which the inhibition at 5 µM at SRC, at EPH-A8 and on EPH-B4 was below 50% each time.

As for `CSc1nc(C(=O)Nc2ccc(Oc3ccnc(C(=O)NC4CCN(C)CC4)c3)c(F)c2)c(-c2ccc(F)cc2)o1` [Compound 42], the inhibition at 5 µM at SRC, on EPH-A8 and on EPH-B4 was below 50% throughout.

`COc1nc(C(=O)Nc2ccc(Oc3ccnc(C(=O)NC4COC4)c3)c(F)c2)c(-c2ccc(F)cc2)o1` [Compound 39]: the inhibition at 5 µM at SRC, on EPH-A8 and on EPH-B4 was below 50% each time.

For the compound `CNC(=O)c1cc(Oc2ccc(NC(=O)c3nc(SC)oc3-c3ccc(F)s3)cc2F)ccn1` [Compound 16], the inhibition at 5 µM at SRC, on EPH-A8 and at EPH-B4 was below 50% throughout.

As to `COc1nc(C(=O)Nc2ccc(Oc3ccnc(C(=O)NCC(F)(F)F)c3)c(F)c2)c(-c2ccc(F)cc2)o1` [Compound 43], the inhibition at 5 µM on SRC, at EPH-A8 and on EPH-B4 was below 50% each time.

Turning to `CNC(=O)c1cc(Oc2ccc(NC(=O)c3nc(NC)sc3-c3ccc(F)cc3F)cc2F)ccn1` [Compound 21], the inhibition at 5 µM on SRC is below 50%; at EPH-A8, 50 to 79%; on EPH-B4, below 50%.

As to `CSc1nc(C(=O)Nc2ccc(Oc3ccnc(C(=O)NCC(F)(F)F)c3)c(F)c2)c(-c2ccc(F)cc2)o1` [Compound 40], the inhibition at 5 µM at SRC, at EPH-A8 and at EPH-B4 was below 50% in each case.

Source of the values: patent US11629143B2, “HipK4 inhibitors and uses thereof” (Vibliome Therapeutics, LLC, priority 2020, dated 2023).
